Key:
[1] = target: T1, 5-HT4 receptor (Rattus norvegicus, UniProt Q62758); experiment: Antagonism of the serotonin inotropic response by 5-HT4 antagonists in post-MI rat papillary muscle (reversal, curve shift, Schild Kb); assay type: cell-based
T1 construct: The papillary muscles were mounted in organ baths; from tissue; host or cells: rat posterior left ventricular papillary muscle (post-MI or aortic-banding heart failure)
Method: The muscles were field stimulated with alternating polarity at 1 Hz with impulses of 5 msec duration and current about 20% above individual threshold (10-15 mA, determined in each experiment). The isometrically contracting muscles were stretched to the maximum of their length-tension curve. The force was recorded and analysed as previously described (Skomedal et al., 1997, J. Pharmacol. Exp. Ther. 280: 721-729). The muscles were allowed to equilibrate for 90 minutes. […] Averaged contraction-relaxation cycles (CRC) were calculated for different experimental periods, and these cycles were used to determine descriptive parameters like maximal development of force (dF/dt)max, time to peak force (TPF) and time to relaxation to 20% level (TR2O). Relaxation time (RT) was calculated as TR2O-TPF. (dF/dt)max was used as an index of contractility. Inotropic responses induced by agonists were expressed by increase in (dF/dt)max. RT was used as index of relaxation. Lusitropic responses were expressed as reduction in RT. Mechanical response at the end of the equilibrium period was used as the control response.
Agonist was added cumulatively or as a single bolus directly to the organ baths and was completely mixed in the solution within 2-3 seconds. […] The different agonists were added directly to the organ baths in increasing concentrations until supramaximal concentrations of agonist were obtained with respect to maximal inotropic response.
The responses for each concentration of agonist were generally calculated as percent of maximal response. The concentration-response curves constructed from papillary muscle experiment were constructed according to Ariens and Simonis (1964, supra), by estimating centiles (EC10 to EC100) for each single experiment and calculating the corresponding means. This calculation provides mean curves that express the response as fractional response or percent of maximum and display horizontal positioning and the correct mean slope of the curves. The horizontal positioning of the concentration-response curves was expressed as pEC50-values (=−log EC50). Data are expressed as mean±standard error of the mean (SEM) and the number of animals expressed as n. The significance levels of differences were calculated according to Students t-test. P<0.05 is considered statistically significant. The inhibition constants Kb were calculated from the Schild equation, based on the relative shifts of the concentration-response curves for receptor stimulation.

[2] = target: T1, 5-HT4 receptor; experiment: 5-HT4 receptor-mediated inotropic response in papillary muscle of CHF rat 6 weeks after aortic banding; assay type: cell-based; conditions: 1 μM GR113808 after 10 μM serotonin
Method: Trans-aortic constriction (aortic banding) of the ascending aorta was induced in 200 g male Wistar rats under anaesthesia, induced by 63% N2O, 32% O2 and 5% Isoflurane and maintained by 66% N2O, 33% O2 and 1-2% Isoflurane. A right-sided thoracotomi was performed through a 3-4 cm long cutaneous incision, the pericardium was opened and the ascending aorta identified and dissected free of surrounding tissue. A ligature was knit around the ascending aorta and a metal probe with diameter 0.9 mm. The metal probe was then removed. The result was a constriction of the ascending aorta with internal diameter about 0.9 mm. The thorax was then closed with 3-0 silk sutures and the skin closed with Dexon 1 sutures. […]
Papillary muscle was extracted from a CHF rat 6 weeks after aortic banding as described above. osterior left ventricular papillary muscle was prepared, mounted in organ bath, equilibrated and field stimulated at 1 Hz (Sjaastad et al. 2003 supra), and the contraction-relaxation cycles (CRCs) were recorded and analysed as previously described (Skomedal et al. 1997, J. Pharmacol Exp Ther 280: 721-729) (Sjaastad et al., 2003, supra) with respect to maximal developed force (Fmax), maximal development of force (dF/dt)max, time to peak force (TPF), time to relaxation to 20% level (TR20) and relaxation time (RT=TR20-TPF).

[3] = target: T2, 5-HT4 receptor (Homo sapiens, UniProt Q13639); conditions: Gale et al., 1994; cited from earlier work
T2 sequence (Q13639 whole entry): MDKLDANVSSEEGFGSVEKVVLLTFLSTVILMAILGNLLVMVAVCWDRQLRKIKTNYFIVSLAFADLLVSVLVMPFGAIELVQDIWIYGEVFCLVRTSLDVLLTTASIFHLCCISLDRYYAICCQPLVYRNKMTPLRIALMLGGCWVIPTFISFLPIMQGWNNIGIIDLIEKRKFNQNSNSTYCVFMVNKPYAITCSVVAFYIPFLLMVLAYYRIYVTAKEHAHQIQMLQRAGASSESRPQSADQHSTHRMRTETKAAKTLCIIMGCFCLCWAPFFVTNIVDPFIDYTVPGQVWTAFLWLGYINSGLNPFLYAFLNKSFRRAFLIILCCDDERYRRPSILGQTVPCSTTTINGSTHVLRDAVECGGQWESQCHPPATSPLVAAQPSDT

[4] = target: T2, 5-HT4 receptor; experiment: Inotropic response in trabecular muscle from explanted post-infarct human heart; assay type: cell-based; parameters: Trabecular muscles were prepared, mounted in organ baths; from tissue; host or cells: trabecular muscle from explanted human hearts (post-infarct; dilated cardiomyopathy); conditions: 1 μM GR113808 after 10 μM serotonin
Method: The heart was explanted from a patient who had survived a small myocardial infarction and died in hospital from subarachnoidal haemorrhage. Trabecular muscles were prepared, mounted in organ baths, equilibrated and field stimulated at 1 Hz (Skomedal et al., 1997, supra) and the contraction-relaxation cycles (CRCs) were recorded and analysed as previously described (Skomedal et al., 1997, supra) with respect to maximal developed force (Fmax), maximal development of force (dF/dt)max, time to peak force (TPF), time to relaxation to 20% level (TR20) and relaxation time (RT=TR20-TPF).

[5] = target: T2, 5-HT4 receptor; experiment: Inotropic response in trabecular muscle from explanted human heart with dilated cardiomyopathy (IBMX present); assay type: cell-based; parameters: Trabecular muscles were prepared, mounted in organ baths; from tissue; host or cells: trabecular muscle from explanted human hearts (post-infarct; dilated cardiomyopathy); conditions: 1 μM GR113808 after 10 μM serotonin; IBMX 35 μM

T1 sequence (Q62758 whole entry): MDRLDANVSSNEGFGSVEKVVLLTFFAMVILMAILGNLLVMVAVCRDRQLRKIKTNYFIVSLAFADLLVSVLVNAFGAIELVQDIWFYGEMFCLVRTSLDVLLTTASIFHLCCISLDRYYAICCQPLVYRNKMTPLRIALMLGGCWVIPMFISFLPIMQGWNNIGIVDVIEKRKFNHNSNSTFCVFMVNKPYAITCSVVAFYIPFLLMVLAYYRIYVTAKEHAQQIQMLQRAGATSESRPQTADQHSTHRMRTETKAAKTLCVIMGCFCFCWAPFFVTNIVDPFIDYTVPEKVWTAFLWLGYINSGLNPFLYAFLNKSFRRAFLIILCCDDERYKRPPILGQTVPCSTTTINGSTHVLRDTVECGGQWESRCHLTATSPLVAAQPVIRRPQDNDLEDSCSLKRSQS

Q: Which results are given for Cn1cc(C(=O)OCC2CCN(CCNS(C)(=O)=O)CC2)c2ccccc21 [GR113808, {1-[2-(methyl-sulphonylamino)ethyl]-4-piperidinyl}methyl 1-methyl-1H-indole-3-carboxylate]?
A: Kb [1]: 0.5 nM; reversal of the inotropic response evoked by 10 μmol/l serotonin [1]: completely reversed; reversal of the serotonin-induced shortening of the contraction-relaxation cycles [1]: not completely reversed; reversal of the positive inotropic response to serotonin [2]: reversed; pKi [3]: 9.2-9.7; reversal of the positive inotropic response to serotonin [4]: reversed; reversal of the positive inotropic response to serotonin [5]: reversed

From US8829028B2, “5-HT4 receptor antagonists for the treatment of heart failure” (Serodus AS, priority 2002, dated 2014)
